Experimental data reported in patent US20250108088A1, “REGENERATIVE PEPTIDES AND METHODS FOR USE THEREOF” (priority 2023, published 2025).

Legend:
[1] = test system: HNDF fibroblasts; assay: Fibroblast cell proliferation (EDU); format: cell-based, human; details: N = 3; for Fibroblast proliferation, Representative value from experiments (% change relative to control): most effective significant concentration
Description: Fibroblast proliferation is an important component of tissue regeneration. To determine if the peptides of the disclosure affect fibroblast proliferation, HNDFs were grown as described above, and split from 1-10 cm plates to 4-24 well plates. After allowing the cells to grow overnight, normal media was replaced with starvation media (1% FBS in DMEM). 10 ng/ml of fibroblast growth factor (FGF) served as a positive control, untreated cells (starvation media only) served as a negative control, and different concentrations of the peptides as test articles. The cells were then exposed to the peptides for a day before adding 5-Ethynyl-2′-deoxyuridine (EDU) EDU signal marker for 2-4 hours to assess DNA synthesis and cell proliferation.
The fibroblasts were fixed in PFA for 10-15 minutes, then washed 2× in 4% BSA. 0.1% Triton X-100 in PBS was added for 20 min at 23° C. to permeabilize the cells. The cells were washed 2× in 4% BSA and the following reaction mixture was added: 0.25% of 488 iFlour azide, 4% CuSO, 10% Sodium Ascorbate in PBS. The cells were incubated at 23° C. for 30 minutes. The cells were washed in BSA 1× and in PBS 1×. The cells were also stained for DAPI for 30 minutes at 23° C. The cells were washed 2× in PBS and maintained in PBS.
Plates were imaged using the Celigo Imaging Cytometer by Nexcelcom. The amount of fluorescent expression of EDU and DAPI were quantified to determine the amount of EDU/field (and thus the percentage of fibroblast cells dividing).
Because the concentration required to induce an effect with each peptide was not known, each peptide was tested in 3 concentrations: 10 ng/ml, 100 ng/ml, and 1000 ng/ml as shown in Table 4A and Table 4B.

[2] = test system: Normal human dermal fibroblasts (HNDF); assay: Myofibroblast transition assay (MFT), aSMA immunofluorescence; format: cell-based; details: N = 3; for Myofibroblast transition (MFT), aSMA/cell, % change relative to control: TGF-Beta induced HNDF, control of no peptide; for MFT, Representative value from experiments (% change relative to control): most effective significant concentration of 10, 100, 1000 ng/ml
Source text: The myofibroblast transition (MFT) assay determines the effect of the peptide on inhibiting the transition of fibroblasts to myofibroblasts. The extracellular matrix produced by myofibroblasts may be produced in excess and may not be remodeled during tissue healing, leaving behind the fibrous connective tissue that forms a scar. Thus, the ability to regulate the degree of MFT may enable control of scarring. To determine if the peptides provided herein affect MFT, the following assay was performed.
Normal human dermal fibroblasts (HNDF) were cultured in high glucose Dulbecco's modified eagle medium (DMEM) supplemented with 10% fetal bovine serum (FBS) and 5 ml of 10,000 units of penicillin/streptomycin. Cells were cultured on 10 cm plates with media changes every 2 days. Cells were passaged in 0.25% Trypsin/EDTA after achieving 80% confluency.
To induce myofibroblast transition (MFT), normal human dermal fibroblasts (HNDFs) were split from 1-10 cm plates to 5-96 well plates. Cells were then allowed to grow the next day. The following day, cells were serum starved (1% FBS in DMEM) for 4 hours prior to adding 20 ng/ml of TGF-Beta to all wells of the plate. 1000 μM of Vactosertib (TEW-7197/EW-7197) was added to serve as a positive control and different concentrations of peptides were added to serve as the test articles. The cells were then exposed to the compounds for 5 more days before fixation.
The cells were fixed in paraformaldehyde (PFA) for 10-15 minutes, then washed 2× in PBS. Cells were blocked in 4% BSA for 30 minutes at 23° C. Cells were stained with the primary alpha-smooth muscle actin (aSMA) antibody (1:100) for 1 hour at 23° C. or left out at 4° C. overnight. Cells were rinsed 2× with BSA and then the secondary antibody mix was added: Alexa 488 (1:500) and DAPI (1:1000) for 30 min at 23° C. or 1 hr at 4° C. The plates were covered during staining, then rinsed 2× in BSA and stored in PBS.
Plates were imaged using the Celigo Imaging Cytometer by Nexcelcom. The ratio of fluorescent expression of alpha-smooth muscle actin (aSMA) and DAPI were quantified to determine the amount of aSMA/cell.
The change (normalized to the control) in MFT for each concentration is shown along with the p value for all experiments relative to the control of no peptide.

Substance | Myofibroblast transition (MFT), aSMA/cell, % change relative to control ([2]; 10 ng/ml peptide) [%] | Myofibroblast transition (MFT), aSMA/cell, % change relative to control ([2]; 100 ng/ml peptide) [%] | Myofibroblast transition (MFT), aSMA/cell, % change relative to control ([2]; 1000 ng/ml peptide) [%] | MFT, Representative value from experiments (% change relative to control) [2] | also measured
IDFEDVIAEP [MBa4] |  |  |  |  | Fibroblast proliferation (% change relative to control) ([1]; 1000 ng/ml peptide): 0.8384%; Fibroblast proliferation, Representative value from experiments (% change relative to control) [1]: 0.8384 p = (0.037) %
AATHEFGHSLGLSH [MBm1] |  |  |  |  | Fibroblast proliferation (% change relative to control) ([1]; 100 ng/ml peptide): 0.2919%; Fibroblast proliferation, Representative value from experiments (% change relative to control) [1]: 0.2919 (p = 0.044) %
RNPDSPQ [MBBey14] | −0.3781 | −0.3863 | −0.5336 | −0.5336 p = (0.012) % | 
IAHELGH [MBb2.2] | −0.1592 | −0.1476 | −0.1928 | −0.1928 p = (0.021) % | 
AVHELGH [MBb24] |  | −0.1419 |  | −0.1419 p = (0.003) % | 
EYENPGLRKRLRKFRNK [MBb10] |  | −0.2694 |  | −0.2694 p = (0.023) % | 
QLFEDVIAEP [MBBey 38] | −0.3071 |  |  | −0.3071 p = (0.007) % | 
IAHELGHNLGMSH [MBb25] |  | −0.1769 |  | −0.1769 p = (0.008) % | 
RWMAP [MBb74] | 0.04975 |  | −0.3048 | −0.3048 p = (0.019) % | 
SSSGLGLRKRLRKFRNK [MBb50] |  |  |  |  | Fibroblast proliferation (% change relative to control) ([1]; 100 ng/ml peptide): 0.3589%; Fibroblast proliferation, Representative value from experiments (% change relative to control) [1]: 0.3589 p = (0.025) %
GDIR VR (GDIRVR) [MBWhit33] |  | −0.3175 | −0.3527 | −0.3527 p = (0.032) % | 
IRTLDCDADKKDYCLFGRCQYIVELETFRCRCQKGYYGERCVYLEL [EA-2] | −0.1343 | −0.3241 | −0.00716 | −0.3241 p = (0.014) % | 
PPSILGLRKRLRKFRNK [MBb44] |  | −0.1751 |  | −0.1751 p = (0.005) % | 
VCDEPKDQTVVGPALAAYR [MBWhit46] | −0.534 | −0.6191 | −0.6328 | −0.6328 p = (0.031) % | 
VYFVIKT [MBBey41] |  |  | −0.691 | −0.691 p = (0.021) % | 
ENIKKGLRKRLRKFRNK [MBb37] |  | −0.1426 |  | −0.1426 p = (0.032) % | 
GESKGLGLRKRLRKFRNK [MBb36] | −0.07698 | −0.1964 |  | −0.1964 p = (0.002) % | 
NTCHQCGLRKRLRKFRNK [MBb35] |  | −0.3719 | −0.4001 | −0.4001 p = (0.016) % | 
SDAAVDTSSEITTKDLKEKKEVVEEAENGR [PS-2] | −0.4315 | −0.498 |  | −0.498 p = (0.048) % | 
HIWA VVPCIR (HIWAVVPCIR) [MBBey3] |  | −0.1442 |  | −0.1442 p = (0.037) % | 
FEDVIAEP [MBa5] |  |  |  |  | Fibroblast proliferation (% change relative to control) ([1]; 10 ng/ml peptide): 0.5133%; Fibroblast proliferation, Representative value from experiments (% change relative to control) [1]: 0.5133 (p = 0.004) %
KTHPGG [MBWhit38] |  | −0.3798 |  | −0.3798 p = (0.006) % | 
ITCPHCQ [MBa9] |  |  | −0.3194 | −0.3194 p = (0.02) % | 
DVLDKRLFWIQYNREG [MBWhit45] | −0.6471 | −0.6265 | −0.6136 | −0.6471 p = (0.018) % | 
IGPGLP [MBb76] |  | −0.03421 | −0.1847 | −0.1847 p = (0.009) % | 
FFLRIHPDGRVDGVR [MBWhit1] |  | −0.3667 |  | −0.3667 p = (0.038) % | 
LPRDER [MBb3.2] |  |  | −0.3874 | −0.3874 p = (0.003) % | 
MDQGYPKETVDDFPG [MBBey12] |  | −0.6665 | −0.4491 | −0.6665 p = (0.007) % | 
ASCRC [MBb5] | −0.298 | −0.409 | −0.6162 | −0.6162 p = (0.01) % | 
DPCPLCGLRKRLRKFRNK [MBb12] |  | −0.4465 |  | −0.4465 p = (0.037) % | 
